Drawing on ChEMBL document CHEMBL1136256, “alpha1-Adrenoceptor antagonists. 5. Pyridazinone-arylpiperazines. Probing the influence on affinity and selectivity of both ortho-alkoxy groups at the arylpiperazine moiety and cyclic substituents at the pyridazinone nucleus” (Bioorg Med Chem Lett, 2003), this text covers Selectivity ratio and Ki for eight compounds.

Assay type in all cases: tissue-based
The target of test [1] is Adrenergic receptor alpha-2 (Rattus norvegicus) (UniProt P22086+P19328+P22909). Nature of the test: Selectivity ratio of Alpha-2 adrenergic receptor by Alpha-1 adrenergic receptor in rat cerebral cortex.
Test [2] concerns the target T1, Adrenergic receptor alpha-2 (Rattus norvegicus, UniProt P22086+P19328+P22909).
T1 sequence (P22086 whole entry): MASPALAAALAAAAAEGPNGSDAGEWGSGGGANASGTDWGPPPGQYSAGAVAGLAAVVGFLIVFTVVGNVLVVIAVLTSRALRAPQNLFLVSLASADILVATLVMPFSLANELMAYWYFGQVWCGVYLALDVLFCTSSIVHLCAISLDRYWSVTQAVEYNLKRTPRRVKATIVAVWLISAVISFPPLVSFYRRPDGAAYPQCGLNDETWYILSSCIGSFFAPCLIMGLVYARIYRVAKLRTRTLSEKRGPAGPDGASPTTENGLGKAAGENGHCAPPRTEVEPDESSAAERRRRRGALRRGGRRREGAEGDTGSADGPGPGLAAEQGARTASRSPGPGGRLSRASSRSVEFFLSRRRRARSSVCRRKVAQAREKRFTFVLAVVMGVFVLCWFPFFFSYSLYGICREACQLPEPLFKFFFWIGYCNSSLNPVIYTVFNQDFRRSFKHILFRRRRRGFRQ
T1 sequence (P19328 whole entry): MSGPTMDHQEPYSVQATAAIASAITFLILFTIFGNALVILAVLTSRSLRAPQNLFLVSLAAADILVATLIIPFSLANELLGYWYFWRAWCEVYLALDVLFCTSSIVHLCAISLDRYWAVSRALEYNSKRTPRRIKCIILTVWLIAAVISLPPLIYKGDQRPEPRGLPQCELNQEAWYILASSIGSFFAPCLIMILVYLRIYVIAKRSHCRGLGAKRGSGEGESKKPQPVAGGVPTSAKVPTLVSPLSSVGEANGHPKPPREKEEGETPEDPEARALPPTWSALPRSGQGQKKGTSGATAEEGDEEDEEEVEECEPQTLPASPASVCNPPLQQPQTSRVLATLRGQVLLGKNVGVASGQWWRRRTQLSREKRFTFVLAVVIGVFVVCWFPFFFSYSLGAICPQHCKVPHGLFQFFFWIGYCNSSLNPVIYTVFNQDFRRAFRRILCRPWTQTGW
T1 sequence (P22909 whole entry): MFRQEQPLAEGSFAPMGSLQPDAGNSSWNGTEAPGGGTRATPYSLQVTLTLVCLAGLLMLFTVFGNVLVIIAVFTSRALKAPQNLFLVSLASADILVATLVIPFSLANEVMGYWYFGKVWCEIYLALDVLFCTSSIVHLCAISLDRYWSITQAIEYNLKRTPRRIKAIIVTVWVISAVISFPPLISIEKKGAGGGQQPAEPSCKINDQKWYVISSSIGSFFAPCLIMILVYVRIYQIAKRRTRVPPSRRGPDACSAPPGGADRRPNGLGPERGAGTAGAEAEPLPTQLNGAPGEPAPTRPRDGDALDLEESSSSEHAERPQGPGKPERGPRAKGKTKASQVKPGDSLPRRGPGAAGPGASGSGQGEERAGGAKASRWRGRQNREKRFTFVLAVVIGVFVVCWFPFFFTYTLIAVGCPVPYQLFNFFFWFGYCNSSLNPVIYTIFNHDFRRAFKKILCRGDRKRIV
Nature of the test: Binding affinity towards Alpha-2 adrenergic receptor in rat cerebral cortex using [3H]rauwolscine.

In test [3] the target is T2, Adrenergic receptor alpha-1 (Rattus norvegicus, UniProt P15823+P23944+P43140).
T2 sequence (P15823 whole entry): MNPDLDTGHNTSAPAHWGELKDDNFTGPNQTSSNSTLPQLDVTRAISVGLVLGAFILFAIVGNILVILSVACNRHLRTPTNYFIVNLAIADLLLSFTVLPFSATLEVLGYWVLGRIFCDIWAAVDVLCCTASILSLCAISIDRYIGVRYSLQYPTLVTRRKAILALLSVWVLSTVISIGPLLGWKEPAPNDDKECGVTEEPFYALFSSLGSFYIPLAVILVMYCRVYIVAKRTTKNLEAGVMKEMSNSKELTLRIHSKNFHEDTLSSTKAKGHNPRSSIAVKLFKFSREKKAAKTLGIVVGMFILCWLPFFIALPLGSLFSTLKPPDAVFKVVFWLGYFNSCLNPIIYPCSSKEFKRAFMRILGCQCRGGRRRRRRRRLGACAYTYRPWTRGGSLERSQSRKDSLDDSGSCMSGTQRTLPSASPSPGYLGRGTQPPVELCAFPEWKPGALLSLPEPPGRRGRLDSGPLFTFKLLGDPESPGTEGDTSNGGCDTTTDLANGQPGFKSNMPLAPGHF
T2 sequence (P23944 whole entry): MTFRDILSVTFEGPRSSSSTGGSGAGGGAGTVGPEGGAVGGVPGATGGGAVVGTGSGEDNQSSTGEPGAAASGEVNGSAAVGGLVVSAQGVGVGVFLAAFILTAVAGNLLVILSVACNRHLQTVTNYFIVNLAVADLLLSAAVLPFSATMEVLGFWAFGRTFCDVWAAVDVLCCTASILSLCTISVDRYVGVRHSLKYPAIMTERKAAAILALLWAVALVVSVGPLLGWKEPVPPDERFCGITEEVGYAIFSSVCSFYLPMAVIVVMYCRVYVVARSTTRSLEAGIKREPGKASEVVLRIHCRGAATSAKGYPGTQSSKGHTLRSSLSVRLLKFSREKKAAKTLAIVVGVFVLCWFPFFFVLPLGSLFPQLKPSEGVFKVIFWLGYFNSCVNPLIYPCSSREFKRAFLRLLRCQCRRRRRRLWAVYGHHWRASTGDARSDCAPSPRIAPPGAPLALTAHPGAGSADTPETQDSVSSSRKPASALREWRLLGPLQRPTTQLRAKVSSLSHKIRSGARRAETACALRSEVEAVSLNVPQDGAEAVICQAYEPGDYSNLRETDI
T2 sequence (P43140 whole entry): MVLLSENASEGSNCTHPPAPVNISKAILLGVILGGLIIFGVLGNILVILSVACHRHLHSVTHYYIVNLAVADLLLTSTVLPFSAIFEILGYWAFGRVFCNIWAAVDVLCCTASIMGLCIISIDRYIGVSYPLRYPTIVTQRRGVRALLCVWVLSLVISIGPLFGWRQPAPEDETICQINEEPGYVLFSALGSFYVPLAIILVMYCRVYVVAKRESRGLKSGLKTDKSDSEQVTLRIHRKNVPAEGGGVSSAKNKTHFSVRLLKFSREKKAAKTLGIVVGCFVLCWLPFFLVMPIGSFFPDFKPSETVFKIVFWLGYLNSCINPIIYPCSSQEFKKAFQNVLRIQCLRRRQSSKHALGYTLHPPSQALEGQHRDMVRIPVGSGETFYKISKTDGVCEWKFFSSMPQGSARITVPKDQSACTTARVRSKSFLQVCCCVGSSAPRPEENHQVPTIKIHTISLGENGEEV
The test can be described thus: Binding affinity towards Alpha-1 adrenergic receptor in rat cerebral cortex using [3H]prazosin.

For test [4], the target named is T3, 5-hydroxytryptamine receptor 1A (Rattus norvegicus, UniProt P19327).
T3 sequence (P19327 whole entry): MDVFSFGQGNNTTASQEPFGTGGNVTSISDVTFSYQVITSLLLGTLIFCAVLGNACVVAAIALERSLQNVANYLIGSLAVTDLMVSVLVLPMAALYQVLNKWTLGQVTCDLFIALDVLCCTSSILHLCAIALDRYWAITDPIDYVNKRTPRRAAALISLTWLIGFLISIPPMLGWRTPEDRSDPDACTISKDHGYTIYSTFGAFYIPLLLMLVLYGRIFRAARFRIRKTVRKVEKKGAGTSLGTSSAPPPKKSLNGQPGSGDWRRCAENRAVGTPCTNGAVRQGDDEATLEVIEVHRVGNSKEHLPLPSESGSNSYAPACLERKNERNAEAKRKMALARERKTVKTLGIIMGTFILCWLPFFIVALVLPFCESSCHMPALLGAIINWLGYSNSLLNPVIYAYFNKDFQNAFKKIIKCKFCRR
The test can be described thus: Binding affinity towards 5-hydroxytryptamine 1A receptor in rat cerebral cortex using [3H]-8-OH-DPAT.

The target of test [5] is T3, 5-hydroxytryptamine receptor 1A. The test can be described thus: Binding affinity towards 5-hydroxytryptamine 1A receptor in rat cerebral cortex.

pKi: −log10 of the molar value.

Take `COc1ccccc1N1CCN(CCCCCCCn2ncc(N3CCN(C(=O)c4ccco4)CC3)c(Cl)c2=O)CC1`: the Selectivity ratio in test [1] came out at 274.
Regarding `CCOc1ccccc1N1CCN(CCCCCCCn2ncc(N3CCN(C(=O)c4ccco4)CC3)c(Cl)c2=O)CC1`, the inhibitory constant (Ki) is on record as 4 nM in test [2] and 0.5 nM in test [3]. Further, the Selectivity ratio in test [1] was 8.
Consider `COc1ccccc1OCCN1CCN(c2cnn(CCCCCCCN3CCN(c4ccccc4OC)CC3)c(=O)c2Cl)CC1`, for which, in test [1], the Selectivity ratio is 3.
Consider `CC(C)Oc1ccccc1N1CCN(CCCCCCCn2ncc(N3CCN(C(=O)c4ccco4)CC3)c(Cl)c2=O)CC1`, for which the values for the Ki in test [2] and in test [3] were 0.56 nM and 0.052 nM, respectively. Further, the Selectivity ratio in test [1] is 11. Also, the pKi in test [4] is 9.10.
Take `CCOc1ccccc1N1CCN(CCCCCCCn2ncc(N3CCN(CCOc4ccccc4OC)CC3)c(Cl)c2=O)CC1`: the Ki was 8.2 nM in test [2] and 0.58 nM in test [3]. Moreover, in test [1], the Selectivity ratio is 14.
In the case of `CCOc1ccccc1OCCN1CCN(c2cnn(CCCCCCCN3CCN(c4ccccc4OCC)CC3)c(=O)c2Cl)CC1`, the Ki in test [2] is listed as 2 nM; in test [3] it was 0.43 nM. Moreover, the Selectivity ratio in test [1] was found to be 5. The pKi in test [4] is 9.66.
Turning to `CCOc1ccccc1OCCN1CCN(c2cnn(CCCCCCCN3CCN(c4ccccc4OC)CC3)c(=O)c2Cl)CC1`, the values for the Ki in test [2] and in test [3] were 1.6 nM and 0.55 nM, respectively. Also, in test [1], the Selectivity ratio was 3. Besides, the pKi in test [4] is 9.80.
In test [5], `CCOc1ccccc1OCCN1CCN(c2cnn(CCCCCCCN3CCN(c4ccccc4OC(C)C)CC3)c(=O)c2Cl)CC1` showed a pKi of 9.09. The Ki in test [2] is 3.2 nM; in test [3], 0.26 nM. For the same compound, the Selectivity ratio in test [1] was 12.

A word on the Ki: it is the equilibrium dissociation constant of an inhibitor or competing ligand from its target. The low end stands for higher affinity, the high end for lower affinity. The term pKi denotes the negative decadic logarithm of the Ki, by convention in mol/L. Read a low pKi as a high Ki.
